22 molecules from patent US9365540B2, “Benzimidazole derivatives as MCH receptor antagonists” (Takeda Pharmaceutical Company Limited, priority 2012, dated 2016) can be followed below.

Test [1] concerns the target T1, human MCHR1 (Homo sapiens, UniProt Q99705).
T1 construct: expressed in transfected cells; host or cells: CHO dhfr- cells, clone #4
Kind of test: MCH receptor 1 antagonistic activity, Ca2+ mobilization assay. It counts as cell-based. The note with it: CHO, test compound 0.1 μM; human MCHR1-expressing CHO cells (clone #4); ligand MCH(4-19) 2 nM; read-out: Inhibitory rate % (0.1 μM). As for the experimental part: Measurement of MCH Receptor 1 Antagonistic Activity of Test Compound Using Ca^2+ Mobilization Assay Using an expression vector plasmid introduced with human MCHR1 gene for expression in animal cells, human MCHR1 gene was introduced into CHO cells (CHO dhfr^−) by Lipofectamine LTX (Invitrogen). The cells were cultured in selection MEMα medium [445 mL of MEMα medium without nucleic acid and added with 5 mL of Penicillin-Streptomycin (Invitrogen) and 50 mL of dialyzed fetal bovine serum]. Colony 24 clones grown in the selection medium, which were human MCHR1 gene-expressing CHO cell candidates, were selected. […] In the following test, this human MCHR1-expressing CHO cell (clone #4) was used. An integrated dispensing function fluorometer (CellLux, PerkinElmer) was used for Ca^2+ mobilization assay. […] The medium was removed, and the cells were washed with phosphate buffered saline (PBS). […] The plate was set on a plate reader. […] The inhibition rates (%) of test compounds (0.1 μM) as antagonist activity measured using human MCHR1-expressing CHO cells (clone #4) are shown in the following Table 3.
(A change in cytosolic calcium serves as a functional read-out for many receptors and channels.)

Test [2] addresses T2, human MCH receptor 1 (MCHR1) (Homo sapiens, UniProt Q99705).
T2 construct: expressed in transfected cells; host or cells: CHO cell clone 57 (membrane fraction)
Description: human MCH receptor 1 (MCHR1) competitive binding assay with [125I]-MCH(4-19). The note with it: test compound 0.1 μM, human MCHR1-expressing CHO cell membrane fraction, read-out: Binding inhibition rate % (0.1 μM). As for the experimental part:
Determination of human MCH receptor 1 (MCHR1) competitive inhibitory activity of test compound using binding assay
1. Preparation of Membrane Fraction
Using human MCHR1 (=SLC-1 receptor)-expressing CHO cell clone 57 described in WO01/82925, MCHR1-expressing CHO cell membrane fractions were prepared by the following method.
In phosphate buffered saline (pH 7.4) supplemented with 5 mM EDTA (ethylenediaminetetraacetic acid) were respectively suspended human MCHR1-expressing CHO cells (1×10^8 cells) and centrifuged. Homogenate buffer (10 mL, 10 mM NaHCO3, 5 mM EDTA, pH 7.5, 0.5 mM PMSF (phenylmethylsulfonyl fluoride), 20 mg/L leupeptin, 4 mg/L E-64, 1 mg/L pepstatin A) was added to the pellets of the cells and, using Polytron Homogenizer, the mixture was homogenated. The supernatant obtained after centrifugation at 400×g for 10 min was further centrifuged at 100,000×g for 1 hr to give precipitate of the membrane fraction. The precipitate were suspended in 2 mL of assay buffer [20 mM Tris-HCl (pH 7.5), 5 mM EDTA, 0.5 mM PMSF, 20 mg/L leupeptin, 4 mg/L E-64, 1 mg/L pepstatin A]. The membrane fractions were suspended in assay buffer to a protein concentration of 2 mg/mL, and after dispensing, preserved at −80° C. and used upon thawing each time when in use.
The MCHR1 ligand binding inhibitory activity of the test compound was determined as follows.
An MCHR1-expressing CHO cell membrane fraction (173 μL) diluted with an assay buffer was dispensed to a 96 well polypropylene plate (3363, Corning). DMSO solution (2 μL), 33 μM cold MCH(1-19) diluted with DMSO solution (2 μL), or a test compound solution diluted with DMSO solution to various concentrations (2 μL) was added, and lastly, [^125I]-MCH (4-19) diluted with assay buffer (hereinafter, sometimes to be referred to as “hot MCH”, 25 μL) was added to each well. The mixture was reacted with stirring at room temperature for 1 hr, and the plate was set on FilterMate Harvester (PerkinElmer). Using a treating glass filter plate (GF/C, PerkinElmer) with polyethyleneimine, which had been previously set, the plate was suction-filtered and washed three times with washing buffer (50 mM Tris-HCl buffer pH 7.5). The glass filter plate was dried, MicroScinti0 (PerkinElmer) was added at 25 μL/well, and the resulting radioactivity was measured by TopCount liquid scintillation counter (PerkinElmer). The binding inhibition rate of the test compound was calculated by the following formula. Binding inhibition (%)=100−(radioactivity upon addition of test compound and hot MCH−radioactivity upon addition of cold MCH and hot MCH solution)/(radioactivity upon addition of DMSO solution and hot MCH−radioactivity upon addition of cold MCH and hot MCH solution)×100
The binding inhibition rates (%) of test compounds (0.1 μM) as measured using human MCHR1-expressing CHO cell are shown in Table 2.

T2 sequence (Q99705 whole entry): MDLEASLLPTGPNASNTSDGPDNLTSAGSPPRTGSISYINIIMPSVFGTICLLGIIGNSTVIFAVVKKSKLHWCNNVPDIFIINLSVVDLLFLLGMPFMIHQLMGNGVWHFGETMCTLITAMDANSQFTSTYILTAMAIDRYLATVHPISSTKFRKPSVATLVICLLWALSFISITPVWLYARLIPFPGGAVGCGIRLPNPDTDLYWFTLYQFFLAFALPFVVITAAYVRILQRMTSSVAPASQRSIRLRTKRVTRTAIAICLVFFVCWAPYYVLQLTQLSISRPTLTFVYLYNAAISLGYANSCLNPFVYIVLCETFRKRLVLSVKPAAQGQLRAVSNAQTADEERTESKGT
T1 sequence (Q99705 whole entry): as above

For the molecule `Cn1c([C@@H]2C[C@@H]2C(C)(C)O)nc2ccc(-n3ccc(OCc4ccc(Cl)cc4)cc3=O)cc21` (racemic) [Example 80, 4-((4-Chlorobenzyl)oxy)-1-(2-((1RS,2SR)-2-(2-hydroxypropan-2-yl)cyclopropyl)-1-methyl-1H-benzimidazol-6-yl)pyridin-2(1H)-one], the inhibition at 0.1 µM in test [1] worked out at 99%; in test [2], 91%.
For the molecule `Cn1c([C@H]2C[C@H]2C#N)nc2ccc(-n3ccc(OCc4ccc(Cl)cc4)cc3=O)cc21` (racemic) [Example 148, (1RS,2SR)-2-(6-(4-((4-Chlorobenzyl)oxy)-2-oxopyridin-1(2H)-yl)-1-methyl-1H-benzimidazol-2-yl)cyclopropanecarbonitrile], the results for the inhibition at 0.1 µM in test [1] and in test [2] were 94% and 69%, respectively.
In the case of `Cn1c(C2CC2)nc2ccc(-n3ccc([C@@H]4C[C@H]4c4ccc(Cl)cc4)cc3=O)cc21` (racemic) [Example 253, 4-((1RS,2RS)-2-(4-chlorophenyl)cyclopropyl)-1-(2-cyclopropyl-1-methyl-1H-benzimidazol-6-yl)pyridin-2(1H)-one], the inhibition at 0.1 µM came out at 69% in test [1] and 64% in test [2].
On the same counts, the results for `Cn1c(C(=O)C2CC2)nc2ccc(-n3ccc(OCc4ccc(F)cc4)cc3=O)cc21` [Example 31, 1-(2-(Cyclopropylcarbonyl)-1-methyl-1H-benzimidazol-6-yl)-4-((4-fluorobenzyl)oxy)pyridin-2(1H)-one] are 61% and 52%.
On the same counts, the results for `CC(C)Cc1nc2ccc(-n3ccc(OCc4ccc(Cl)cc4)cc3=O)cc2n1C` [Example 37, 4-((4-Chlorobenzyl)oxy)-1-(2-isobutyl-1-methyl-1H-benzimidazol-6-yl)pyridin-2(1H)-one] are 51% and 59%.
On the same counts, the results for `CC1CC1c1nc2ccc(-n3ccc(OCc4ccc(F)cc4)cc3=O)cc2n1C` (centres unmarked) [Example 43, 4-((4-Fluorobenzyl)oxy)-1-(1-methyl-2-(2-methylcyclopropyl)-1H-benzimidazol-6-yl)pyridin-2(1H)-one] are 100% and 69%.
Turning to `Cc1c(C2CC2)nc2ccc(-n3ncc(OCc4ccc(Cl)cc4)cc3=O)cn12` [Example 55, 5-((4-Chlorobenzyl)oxy)-2-(2-cyclopropyl-3-methylimidazo[1,2-a]pyridin-6-yl)pyridazin-3(2H)-one], the values for the inhibition at 0.1 µM in test [1] and in test [2] were 78% and 53%, respectively.
On the same counts, the results for `Cn1c(C2CC2(F)F)nc2ccc(-n3ccc(OCc4ccc(Cl)cc4)cc3=O)cc21` (centres unmarked) [Example 62, 4-((4-Chlorobenzyl)oxy)-1-(2-(2,2-difluorocyclopropyl)-1-methyl-1H-benzimidazol-6-yl)pyridin-2(1H)-one] are 57% and 63%.
On the same counts, the results for `CCCc1nc2ccc(-n3ccc(OCc4ccc(F)cc4)cc3=O)cc2n1C` [Example 64, 4-((4-Fluorobenzyl)oxy)-1-(1-methyl-2-propyl-1H-benzimidazol-6-yl)pyridin-2(1H)-one] are 99% and 76%.
On the same counts, the results for `CC(=O)c1nc2ccc(-n3ccc(OCc4ccc(F)cc4)cc3=O)cc2n1C` [Example 66, 1-(2-Acetyl-1-methyl-1H-benzimidazol-6-yl)-4-((4-fluorobenzyl)oxy)pyridin-2(1H)-one] are 84% and 57%.
As for `Cn1c(-c2cnco2)nc2ccc(-n3ccc(OCc4ccc(F)cc4)cc3=O)cc21` [Example 69, 4-((4-Fluorobenzyl)oxy)-1-(1-methyl-2-(1,3-oxazol-5-yl)-1H-benzimidazol-6-yl)pyridin-2(1H)-one], the inhibition at 0.1 µM in test [1] is 58%; in test [2] it was 65%.
Consider `Cc1c(C2CC2)nc2ccc(-n3ccc(OCc4ccc(Cl)cc4)nc3=O)cn12` [Example 70, 4-((4-Chlorobenzyl)oxy)-1-(2-cyclopropyl-3-methylimidazo[1,2-a]pyridin-6-yl)pyrimidin-2(1H)-one], for which the inhibition at 0.1 µM in test [1] was 35%; in test [2], 79%.
For the molecule `Cn1c(C2CC2)nc2ccc(-n3ccc(OCc4ccccc4F)cc3=O)cc21` [Example 71, 1-(2-Cyclopropyl-1-methyl-1H-benzimidazol-6-yl)-4-((2-fluorobenzyl)oxy)pyridin-2(1H)-one], the inhibition at 0.1 µM in test [1] came out at 43%; in test [2], 72%.
Regarding `Cn1c(C2CC2)nc2ccc(-n3ccc(OCc4cccc(F)c4)cc3=O)cc21` [Example 72, 1-(2-Cyclopropyl-1-methyl-1H-benzimidazol-6-yl)-4-((3-fluorobenzyl)oxy)pyridin-2(1H)-one], the figures for the inhibition at 0.1 µM in test [1] and in test [2] were 58% and 80%, respectively.
As to `Cn1c(C2CC2)nc2ccc(-n3ccc(OCc4ccsc4)cc3=O)cc21` [Example 75, 1-(2-Cyclopropyl-1-methyl-1H-benzimidazol-6-yl)-4-(3-thienylmethoxy)pyridin-2(1H)-one], the inhibition at 0.1 µM in test [1] was 80%; in test [2] it was 84%.
On the same counts, the results for `Cc1ncoc1-c1nc2ccc(-n3ccc(OCc4ccc(F)cc4)cc3=O)cc2n1C` [Example 89, 4-((4-Fluorobenzyl)oxy)-1-(1-methyl-2-(4-methyl-1,3-oxazol-5-yl)-1H-benzimidazol-6-yl)pyridin-2(1H)-one] are 46% and 73%.
In the case of `CCc1nc2ccc(-n3ccc(OCc4ccc(Cl)c(F)c4)cc3=O)cc2n1C` [Example 229, 4-((4-Chloro-3-fluorobenzyl)oxy)-1-(2-ethyl-1-methyl-1H-benzimidazol-6-yl)pyridin-2(1H)-one], in test [2], the inhibition at 0.1 µM stood at 45%.
Still for that read-out and setting: for `Cn1c(C2CC2)nc2ccc(-n3ccc(OCc4cc(Br)c(Cl)s4)cc3=O)cc21` [Example 232, 4-((4-Bromo-5-chloro-2-thienyl)methoxy)-1-(2-cyclopropyl-1-methyl-1H-benzimidazol-6-yl)pyridin-2(1H)-one] the value was 73%.
Regarding `CCc1nc2ccc(-n3ccc(OCc4ccc(C(F)(F)F)s4)cc3=O)cc2n1C` [Example 233, 1-(2-Ethyl-1-methyl-1H-benzimidazol-6-yl)-4-((5-(trifluoromethyl)-2-thienyl)methoxy)pyridin-2(1H)-one], the inhibition at 0.1 µM in test [2] is 67%.
On to `CCc1nc2ccc(-n3ccc(OCc4ccsc4F)cc3=O)cc2n1C` [Example 234, 1-(2-Ethyl-1-methyl-1H-benzimidazol-6-yl)-4-((2-fluoro-3-thienyl)methoxy)pyridin-2(1H)-one], for which the inhibition at 0.1 µM in test [2] amounted to 50%.
The same measure, in the same setting: for `CCc1nc2ccc(-n3ccc(OCc4ccc(F)s4)cc3=O)cc2n1C` [Example 246, 1-(2-Ethyl-1-methyl-1H-benzimidazol-6-yl)-4-((5-fluorothiophen-2-yl)methoxy)pyridin-2(1H)-one] the value was 52%.
Turning to `Cn1c(C2CC2)nc2ccc(-n3ccc(OCc4ccc5sccc5c4)cc3=O)cc21` [Example 255, 4-(1-Benzothiophen-5-ylmethoxy)-1-(2-cyclopropyl-1-methyl-1H-benzimidazol-6-yl)pyridin-2(1H)-one], in test [2], the inhibition at 0.1 µM came out at 85%.
